The values below are quoted from earlier work in patent US20070059371A1, “Nanoparticulate ebastine formulations” (Elan Pharma International, Limited, priority 2005, published 2007).

The conditions of data set [1]: mainly as conjugated metabolites.

For `CC(C)(C)c1ccc(C(=O)CCCN2CCC(OC(c3ccccc3)c3ccccc3)CC2)cc1` [Ebastine, 4′-tert-butyl-4-[4-(diphenylmethoxy)piperidino]butyrophenone], the solubility in water result is given as “not very soluble in water”. Further, the “excreted in the urine” value in data set [1] is listed as 66%.
